{"source": "patent US20260021158A1", "about": "“GRANULAR COMPOSITIONS COMPRISING A PEPTIDE AND USES THEREOF” (TARSIER PHARMA LTD., priority 2022, published 2026)", "assay": "Assay of physical mixtures and extrudates for API stability by HPLC-UV", "type": "physicochemical", "conditions": "after the grinding and sieving process as well as extrusion; physical mixture and extrudate", "protocol": "Physical mixtures were assayed for drug load and stability post grinding and sieving. 5 mg of sample was weighed into an aluminum weighing boat and transferred to a low-binding Eppendorf, followed by the addition of 50 uL of ACN. This was vortexed vigorously until the polymer had dissolved and the API precipitated. Next, water was added and the mixture vortexed vigorously again until the API dissolved completely, and polymer had precipitated. For the 18% drug loaded physical mixtures, 2950 μL water was added and for the 9% drug loaded physical mixtures, 1450 μL water was added. Lastly, the Eppendorfs were centrifuged for 30 seconds at a speed of 5′000 RPM.\nExtrudates were assayed for drug load and stability by cutting them to specific weights to give the same end concentration as the standards (net peptide concentration of 0.3 mg/mL) after the addition of diluent. […] Lastly, the Eppendorfs were centrifuged and supernatants analyzed.\nDrug load and stability of API in the extrudates were quantified by HPLC-UV as describe above. […] Additionally, the homogeneity of the entire length of the extrudate was assessed by cutting and weighing three 3 mm pieces from each section from 1 to 16 (N=16, n=3) and assaying in the same way as outlined above (Assay of physical mixtures by HPLC-UV). Lastly, the average diameter of the extrudates was measured by caliper."}
{"smiles": "C[C@@H](O)[C@H](NN)C(=O)N[C@@H](CCCCN)C(=O)N1CCC[C@H]1C(=O)N[C@@H](CCCNC(=N)N)C(=O)C(=O)CNNC(Cc1ccc(O)c(/N=N/c2ccc(OP(=O)([O-])OCC[N+](C)(C)C)cc2)c1)C(=O)O", "note": "(stereo partly shown) [PTC, Dazdotuftide]", "values": [{"measurement": "stability of API after processing", "value": "stable"}]}
